Results on 15 compounds are retold here after ChEMBL document CHEMBL1201862, “PubChem BioAssay data set” (2004).

Experiment in all cases: growth of human tumour cells (NCI), 48 h
Assay [1] concerns HCC 2998.
Assay [2] deals with CAKI-1.
Assay [3] has as its system SNB-75.
Assay [4] has as its system LXFL 529.
For assay [5], the system named is OVCAR-4.
The subject of assay [6] is SNB-19.
The test system of assay [7] is SF-295.
Assay [8] has as its system M19-MEL.
The test system of assay [9] is MOLT-4.
The subject of assay [10] is SK-MEL-2.
Assay [11] relates to HOP-92.
In assay [12] the test system is TK-10.
The subject of assay [13] is IGROV-1.
The subject of assay [14] is SW-620.
Assay [15] deals with NCI-H226.

SMILES strings stand for the structures.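 Following 48 hours of exposure in 96-well plates, responses at five concentrations were used to interpolate endpoints linearly. Here, GI50 denotes the concentration required for 50% inhibition of growth.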 Active and inactive are the calls of the source. No stated cut-off is given here; in the data, active = GI50 up to about 1.1 µM and inactive = higher.

As to `CCNC(=O)O/N=C1\CCC2[C@@H]3CC=C4C[C@@H](OC(=O)NCC)CC[C@]4(C)C3CC[C@]12C` (stereo partly drawn), the GI50 was 4.68 µM (inactive) in assay [1]; 1.88 µM (inactive) in assay [2]; 2.69 µM (inactive) in assay [3]; 1.01 µM (active) in [4]; 1.55 µM (inactive) in assay [5]; 0.495 µM (active) in assay [6]. In addition, the GI50 in [7] is 0.971 µM (active); in [8], 1.65 µM (inactive); in [9], 1.05 µM (active); in assay [10], 2.13 µM (inactive); in [11] it was 3.08 µM (inactive); in [12], 1.77 µM (inactive). The GI50 in assay [13] is 4.43 µM (inactive); in assay [14], 3.61 µM (inactive).
On to `C[C@]12CCC(=O)C(O)=C1CC[C@@H]1C2CC[C@]2(C)NC(=O)CCC12` (stereo partly drawn), for which the GI50 in assay [2], in [3], in assay [4], in assay [5], in [6] and in [15] was > 100 µM (inactive) throughout. Besides, the GI50 in assay [7], in assay [8], in assay [9], in assay [10], in assay [11] and in [12] was > 100 µM (inactive) in each case. For the same compound, the GI50 in assay [13] and in [14] was > 100 µM (inactive) each time.
In the case of `COC(=O)[C@@H]1C[C@H](c2ccc(OC)c(OC)c2)OC1=O.COC(=O)[C@H]1C[C@H](c2ccc(OC)c(OC)c2)OC1=O`, the GI50 was 61.9 µM (inactive) in assay [1]; > 100 µM (inactive) in assay [2]; > 100 µM (inactive) in assay [3]; > 100 µM (inactive) in assay [4]; > 100 µM (inactive) in assay [5]; > 100 µM (inactive) in assay [6]. The GI50 in assay [15], in assay [7], in [8], in [9], in assay [11] and in assay [12] was > 100 µM (inactive) throughout. In addition, the GI50 in [13] and in [14] was > 100 µM (inactive) throughout.
With `COc1ccc2oc3c(OC)c(OC)c(OC)cc3c(=O)c2c1`, the GI50 is > 100 µM (inactive) in assay [1]; > 100 µM (inactive) in [2]; 24.7 µM (inactive) in [3]; > 100 µM (inactive) in assay [4]; > 100 µM (inactive) in assay [5]; > 100 µM (inactive) in assay [6]. In addition, the GI50 in assay [8], in [9], in assay [10], in [12], in assay [13] and in assay [14] was > 100 µM (inactive) throughout.
`CCC1=CCC(P(=O)(c2ccccc2)c2ccccc2)CC1C` (stereo not drawn): the GI50 is > 100 µM (inactive) in assay [2]; 18.5 µM (inactive) in assay [3]; 41.8 µM (inactive) in assay [4]; 35.6 µM (inactive) in [5]; 27.5 µM (inactive) in assay [6]; 39.2 µM (inactive) in [15]. Besides, the GI50 in assay [7] is 32 µM (inactive); in assay [8] it was 39.5 µM (inactive); in assay [9], 20.5 µM (inactive); in assay [10], 29.7 µM (inactive); in [11], 25.5 µM (inactive); in [12], 32.6 µM (inactive). The GI50 in assay [13] was 47.1 µM (inactive); in assay [14] it was 48.5 µM (inactive).
In the case of `CN1C(=O)C(C)(C)NS1(=O)=O`, the GI50 in assay [1], in assay [2], in assay [3], in [4], in assay [5] and in assay [6] was > 100 µM (inactive) throughout. For the same compound, the GI50 in [7], in assay [8], in assay [9], in assay [10], in assay [12] and in [13] was > 100 µM (inactive) each time. In addition, in assay [14], the GI50 was > 100 µM (inactive).
With `c1cncc(C2N3CCCCC3[C@@H]3c4[nH]c5ccccc5c4CCN23)c1` (stereo partly drawn), the GI50 in assay [2], in assay [3], in assay [4], in [5], in assay [6] and in [7] was > 100 µM (inactive) each time. In addition, the GI50 in assay [8], in assay [9], in assay [10], in [11], in assay [12] and in assay [13] was > 100 µM (inactive) in each case. Besides, in assay [14], the GI50 is > 100 µM (inactive).
Regarding `N/N=C1\C(=O)N(C2CCCCCC2)C(=O)C1C(=O)NC1CCCCCC1` (stereo not drawn), the GI50 was 25.6 µM (inactive) in assay [1]; 22.8 µM (inactive) in assay [4]; 28.3 µM (inactive) in assay [5]; 35.6 µM (inactive) in assay [6]; 45.2 µM (inactive) in assay [7]; 37.9 µM (inactive) in assay [8]. The GI50 was 22 µM (inactive) in assay [9]; 19.1 µM (inactive) in [10]; 21.3 µM (inactive) in assay [11]; > 10 µM (inactive) in assay [12]; 38 µM (inactive) in assay [13]; 28.3 µM (inactive) in [14].
As to `O=C1/C=C(/c2ccc(O)cc2)[C@@H](O)Cc2ccc(O)cc2O1`, the GI50 in assay [2] is 29.1 µM (inactive); in assay [4], 63.7 µM (inactive); in assay [5], > 100 µM (inactive); in assay [6] it was 93.5 µM (inactive); in [15] it was 0.859 µM (active); in assay [7] it was 93.1 µM (inactive). The GI50 in assay [8], in [10], in assay [12], in [13] and in assay [14] was > 100 µM (inactive) throughout.
As for `COC(=O)[C@@H]1c2[nH]c3ccccc3c2C[C@@H]2c3ccccc3NC(=O)[C@@H]21`, the GI50 was > 100 µM (inactive) in [1]; > 73.6 µM (inactive) in [2]; 12.7 µM (inactive) in assay [3]; > 65.2 µM (inactive) in [4]; > 80.2 µM (inactive) in assay [6]; 18.3 µM (inactive) in assay [15]. Moreover, the GI50 in assay [7] was 15.7 µM (inactive); in assay [8], > 89.3 µM (inactive); in assay [9], > 100 µM (inactive); in [10] it was > 62.8 µM (inactive); in assay [12], > 80.4 µM (inactive); in assay [13] it was > 100 µM (inactive). Besides, the GI50 in [14] was > 70.3 µM (inactive).
Take `NC(=O)COc1c(Br)cc(Br)cc1Br`: the GI50 in [1] is > 100 µM (inactive); in assay [2], > 100 µM (inactive); in assay [3], > 100 µM (inactive); in [5], 27.7 µM (inactive); in assay [6], > 100 µM (inactive); in assay [15], > 100 µM (inactive). Besides, the GI50 in assay [7], in assay [8], in assay [9] and in assay [10] was > 100 µM (inactive) throughout.
Take `O=C(CC1(O)C(=O)Nc2ccccc21)c1cccc(O)c1` (stereo not drawn): the GI50 in [2], in assay [3], in assay [4], in assay [5], in assay [6] and in assay [15] was > 100 µM (inactive) in each case. The GI50 in [7], in assay [8], in [9], in [10], in [11] and in assay [12] was > 100 µM (inactive) in each case. The GI50 in assay [13] and in assay [14] was > 100 µM (inactive) throughout.
Regarding `CCOC(=O)C(C)(c1cn(C)c2ccccc12)c1cn(C)c2ccccc12`, the GI50 in assay [1] is > 100 µM (inactive); in assay [2] it was 41.6 µM (inactive); in assay [3], 19 µM (inactive); in assay [4], > 100 µM (inactive); in [5], 32.5 µM (inactive); in assay [15], 30.6 µM (inactive). Also, the GI50 in assay [7] was 24.5 µM (inactive); in [8], > 100 µM (inactive); in [9] it was > 100 µM (inactive); in [10] it was > 100 µM (inactive); in [12] it was 83.9 µM (inactive); in assay [13], > 100 µM (inactive). In addition, in assay [14], the GI50 was > 100 µM (inactive).
As for `C/C(CN1C(=O)c2ccccc2C1=O)=N\NS(=O)(=O)c1ccc(C)cc1`, the GI50 in assay [1], in [2], in [3], in assay [4], in assay [5] and in assay [6] was > 100 µM (inactive) throughout. The GI50 in assay [15], in assay [7], in [8], in assay [9], in assay [10] and in assay [12] was > 100 µM (inactive) throughout. The GI50 in assay [13] and in [14] was > 100 µM (inactive) each time.
As for `CCCOc1ccc(/C=C\c2cc(OC)c(OC)c(OC)c2)cc1`, the GI50 in assay [2] is 58.3 µM (inactive); in [3] it was 85.5 µM (inactive); in assay [4], 52.8 µM (inactive); in assay [5], 30.5 µM (inactive); in assay [6], > 100 µM (inactive); in assay [15], > 100 µM (inactive). In addition, the GI50 in assay [7] was 39.9 µM (inactive); in assay [8], 67.8 µM (inactive); in [11], 34.7 µM (inactive); in assay [12] it was 31.8 µM (inactive); in assay [13], > 100 µM (inactive); in assay [14], 55.1 µM (inactive).
